In PubChem BioAssay AID2060886 (Molecular Pharmacology Branch, DTP, NCI, 2025):
One block for each compound: values may come before it.

Test system: 653999-131-R-J2-PDC complex spheroids, growth inhibition
Experiment: Anticancer human tumor 653999-131-R-J2-PDC patient-derived lung adenocarcinoma cell line growth inhibition [RAS]
Conditions: for viability, T/C: stronger effect = lower value
How it was run: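 Agents were tested in combination matrices in half-log decrements from a top concentration at or near clinical Cmax (10 microM if undetermined). Targets were multi-cell spheroids of tumour lines plus HUVEC and MSC stromal cells.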
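Note: spheroids exposed to the agents for seven days before the readout.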

- IC50 (curve of first compound, second compound 0.000949 µM): 772 nM
- IC50 (curve of first compound, second compound 0.003 µM): 502 nM
- IC50 (curve of first compound, second compound 0.00949 µM): 544 nM
- IC50 (curve of first compound, second compound 0.03 µM): 473 nM
- IC50 (curve of first compound, second compound 0.0949 µM): 510 nM
- IC50 (curve of first compound, second compound 0.3 µM): 442 nM
Compound: CC(Nc1ccc2c(c1)OCCn1cc(N3C(=O)OCC3C(F)F)nc1-2)C(N)=O (configuration not stated) + CCn1c(-c2cccnc2C(C)OC)c2c3cc(ccc31)N1CCOC(CC(NC(=O)C(C(C)C)N(C)C(=O)C3(F)CCN(C(=O)C#CC(C)(C)N(C)C)CC3)C(=O)N3CCCC(N3)C(=O)OCC(C)(C)C2)C1
- viability, T/C (second compound 0.000949 µM, first compound 0.0316 µM): 85.2%
- viability, T/C (second compound 0.000949 µM, first compound 0.1 µM): 79.2%
- viability, T/C (second compound 0.000949 µM, first compound 0.316 µM): 66.4%
- viability, T/C (second compound 0.000949 µM, first compound 1 µM): 44.6%
- viability, T/C (second compound 0.000949 µM, first compound 3.16 µM): 29.4%
- viability, T/C (second compound 0.000949 µM, first compound 10 µM): 20.1%
- viability, T/C (second compound 0.003 µM, first compound 0.0316 µM): 88.3%
- viability, T/C (second compound 0.003 µM, first compound 0.1 µM): 70.8%
- viability, T/C (second compound 0.003 µM, first compound 0.316 µM): 59.3%
- viability, T/C (second compound 0.003 µM, first compound 1 µM): 38%
- viability, T/C (second compound 0.003 µM, first compound 3.16 µM): 30.1%
- viability, T/C (second compound 0.003 µM, first compound 10 µM): 20.3%
- viability, T/C (second compound 0.00949 µM, first compound 0.0316 µM): 99.2%
- viability, T/C (second compound 0.00949 µM, first compound 0.1 µM): 71%
- viability, T/C (second compound 0.00949 µM, first compound 0.316 µM): 60.3%
- viability, T/C (second compound 0.00949 µM, first compound 1 µM): 43.7%
- viability, T/C (second compound 0.00949 µM, first compound 3.16 µM): 26.8%
- viability, T/C (second compound 0.00949 µM, first compound 10 µM): 21.9%
- viability, T/C (second compound 0.03 µM, first compound 0.0316 µM): 83.3%
- viability, T/C (second compound 0.03 µM, first compound 0.1 µM): 69.6%
- viability, T/C (second compound 0.03 µM, first compound 0.316 µM): 56.8%
- viability, T/C (second compound 0.03 µM, first compound 1 µM): 37%
- viability, T/C (second compound 0.03 µM, first compound 3.16 µM): 33.2%
- viability, T/C (second compound 0.03 µM, first compound 10 µM): 20.5%
- viability, T/C (second compound 0.0949 µM, first compound 0.0316 µM): 85.8%
- viability, T/C (second compound 0.0949 µM, first compound 0.1 µM): 73.7%
- viability, T/C (second compound 0.0949 µM, first compound 0.316 µM): 57.2%
- viability, T/C (second compound 0.0949 µM, first compound 1 µM): 40.1%
- viability, T/C (second compound 0.0949 µM, first compound 3.16 µM): 29.3%
- viability, T/C (second compound 0.0949 µM, first compound 10 µM): 23.9%
- viability, T/C (second compound 0.3 µM, first compound 0.0316 µM): 92%
- viability, T/C (second compound 0.3 µM, first compound 0.1 µM): 67.5%
- viability, T/C (second compound 0.3 µM, first compound 0.316 µM): 53.5%
- viability, T/C (second compound 0.3 µM, first compound 1 µM): 41.2%
- viability, T/C (second compound 0.3 µM, first compound 3.16 µM): 29.4%
- viability, T/C (second compound 0.3 µM, first compound 10 µM): 18.3%

- IC50 (curve of compound): 2.01 µM [middle of 4 runs]
Compound: CCC(CC)c1cc(NC2CCC(N)C2)n2nccc2n1 (configuration not stated)
- viability, T/C (compound 0.1 µM): 107% [middle of 4 runs]
- viability, T/C (compound 0.316 µM): 120% [middle of 4 runs]
- viability, T/C (compound 3.16 µM): 14% [middle of 4 runs]
- viability, T/C (compound 10 µM): 19.9% [middle of 4 runs]
